# Like-named read-outs stand apart in the source and are kept apart here.
# System: OS patients
smiles,measurement,setting,value
C#Cc1cccc(Nc2ncnc3cc(OCCOC)c(OCCOC)cc23)c1.Cl [Erlotinib],overall clinical outcome,3 OS patients,dramatic improvement
same,pain outcome after three months,"OS patients on Erlotinib, after three months",total disappearance and spontaneous pain drug removal
same,only persistent side effect,"human, in vivo",moderate acne reaction
same,side effect leading to dose reduction,"human, in vivo",abdominal pain and nausea
same,keratoderma regression completed at day,"patient 2 (mild PPK), Erlotinib 50 mg",30 days
same,reduction of pain,"patient 3, Erlotinib started at 50 mg",later
same,reduction of pain,"patients 1 and 2, Erlotinib started at 100 mg (patient 2 reduced to 50 mg)",rapid reduction of pain was observed within days
same,keratoderma regression completed at day,patients 1 and 3 (severe PPK),90 days
